Structures are written as SMILES. Where “and” joins values, the source holds several entries; their conditions need not be identical. Identical values can stand only once. Like-named read-outs stand apart in the source and are kept apart here.

The test system of the assay is T1, GCaMP5-expressing T. gondii.
T1 construct: whole extracellular parasites expressing GCaMP5 Ca2+ sensor
Further details: species or system GCaMP5-expressing Toxoplasma gondii, extracellular; GCaMP5 fluorescence (cytosolic Ca2+) after 100 uM zaprinast in compound-pretreated extracellular parasites, background-subtracted, relative to zaprinast alone. The following applies: 100 uM zaprinast stimulation, 10 min pretreatment, mean of two replicates, 0.23 h. The procedure: GCaMP5-expressing parasites were suspended in Ringer's solution at 4 × 10^7 parasites/ml, and 50 μl of parasites were applied to each well of a 96-well plate (Costar, catalog no. 3631). […] Parasites were then treated with 100 μM zaprinast or 0.1% DMSO as a vehicle control and incubated at 37 °C with 5% CO2 for an additional 4 min before measuring fluorescence with excitation and emission wavelengths of 485 and 525 nm, respectively, on a SpectraMax M3 (Molecular Devices). Basal fluorescence, measured from untreated parasites, was subtracted from all values, and results were expressed as -fold change from parasites treated only with zaprinast. Z′ factors were determined from (i) parasites treated with zaprinast versus untreated parasites and (ii) parasites treated with a final concentration of 1 μM Cpd2 or a vehicle control followed by zaprinast, using the formula, Z′ = 1 − 3(σp + σn)/(|μp − μn|), where σp and σn indicate S.D. values of positive and negative controls, and μp and μn indicate the means of positive and negative controls, respectively. […] We predicted that the zaprinast response measured in GCaMP5-expressing parasites could form the basis for a phenotypic screen. Such a screen would benefit from the known importance of Ca^2+ signaling in parasite biology along with the reported success rate of cell-based phenotypic assays. We designed a screen wherein extracellular GCaMP5-expressing parasites were pretreated with compounds for 10 min before stimulation with zaprinast, and parasite fluorescence was measured 4 min later. We expected that compounds that interfered with the zaprinast response would reduce fluorescence. We calculated a Z′-factor for this screen to determine its dynamic range and suitability to high throughput screening. To do so, we compared zaprinast-treated parasites to untreated parasites or those pretreated with the PKG inhibitor Compound 2 (Cpd2) ([55]). […] We obtained the compound libraries published kinase inhibitor sets PKIS1 ([57]) and PKIS2 (unpublished), from GlaxoSmithKline and applied our phenotypic screen to the 823 ATP mimetics represented in these collections (Fig. 2B and supplemental Table S1). The compounds were screened at a single 10 μM dose with two biological replicates.

As to `CC(C)c1nc(-c2cccc(NS(=O)(=O)c3ccccc3)c2)c(-c2ccnc(Nc3ccc4c(c3)CN(C)CC4)n2)s1` [GSK1649598A], the “fold change in fluorescence relative to zaprinast alone” value was 0.9359.
On to `NS(=O)(=O)c1cccc(Nc2cc(-c3ccc(F)cc3)n[nH]2)c1` [GW824645A], for which the “fold change in fluorescence relative to zaprinast alone” value (10 µM) was 1.167 and 1.492.
In the case of `Nc1ncnc2c1ncn2-c1ccc(Cl)cc1` [AH2635], the “fold change in fluorescence relative to zaprinast alone” value is recorded as 1.022.
Regarding `Cc1ccccc1-n1cnc2c(N)ncnc21` [SKF-97510], the “fold change in fluorescence relative to zaprinast alone” value is 1.09.
As for `CCN(CC)Cc1ccc(Nc2nccc(-c3cnn4ncccc34)n2)cc1` [GW780056X], the “fold change in fluorescence relative to zaprinast alone” value came out at 0.8961.
Turning to `Clc1ccc(-c2cc(-c3cn[nH]c3-c3ccccn3)ccn2)cc1` [GW681251X], the “fold change in fluorescence relative to zaprinast alone” value is 1.448.
Take `Cc1c(Cn2c3ccccc3n3c(=O)cc(N4CCOCC4)nc23)cccc1C(F)(F)F` [GSK2306394A]: the “fold change in fluorescence relative to zaprinast alone” value worked out at 0.7248.
Still for that read-out and setting: as for `Nc1nc(-c2ccccn2)c(-c2ccc3ncccc3n2)s1` [GW693481X], the figure is 1.166; as for `CCOc1ccc2c(-c3ccnc(Nc4cc(OC)cc(C(F)(F)F)c4)n3)cnn2n1` [GW807982X], 0.9255; as for `Nc1nc(N)c2[nH]c(-c3ccccc3)nc2n1` [SKF-12778], 1.022.
Regarding `O=C(Nc1n[nH]c2cc(-c3cccc(F)c3F)ccc12)C1CC1` [SB-733894], the “fold change in fluorescence relative to zaprinast alone” value came to 1.167.
For `O=C(Nc1n[nH]c2nc(-c3ccco3)ccc12)C1CC1` [SB-743899], the “fold change in fluorescence relative to zaprinast alone” value amounted to 1.211.
On to `COc1cc(C=NNc2ncnc3c2cnn3-c2ccccc2)ccc1O` [GW513184X], for which the “fold change in fluorescence relative to zaprinast alone” value is recorded as 0.5493.
Still for that read-out and setting: next, `COc1cccc(-n2nc(C)c3c(N/N=C(\C)c4ccncc4)ncnc32)c1` [GW809885X]: 1.233; `Fc1ccc(-c2ncn(C3CCNCC3)c2-c2ccnc(Nc3ccccc3)n2)cc1` [SB-238039-R]: 0.4937.
Still for that read-out and setting: next, `COc1ccc(COc2ccc(Cc3cnc(N)nc3N)cc2OC)cc1` [GW632580X]: 1.155; `O=C1Nc2ccc(-c3cccnc3)cc2C1=Cc1cc(Br)c(O)c(Br)c1` [GW429374A]: 1.179; `Nc1nc(-c2ccc3c(N)n[nH]c3c2)cc(N2CCCCC2)n1` [GSK2228768A]: 0.9677.
Same read-out and setting: next, `O=C1Nc2ccccc2/C1=C/Nc1ccc2[nH]c(=O)[nH]c2c1` [GW284408X]: 0.9722; `CN(c1ccc(NC(=O)Nc2cc(C(F)(F)F)ccc2F)cc1)c1ccnc(Nc2ccc(S(N)(=O)=O)cc2)n1` [GW809893X]: 0.2843.
For `CC(C)S(=O)(=O)N1CCN(Cc2ccc3c(c2)nc(NC(=O)c2ccsc2)n3C[C@H](O)c2ccccc2)CC1` [GW635815X], the “fold change in fluorescence relative to zaprinast alone” value is 1.196.
Still for that read-out and setting: as for `CC(C)(C)c1ccc(-n2cnc3c(N)ncnc32)cc1` [SKF-97263], the figure is 1.008.
On the same count and under the same terms, as for `Nc1ncnc2occ(-c3ccc(NC(=O)Nc4cc(C(F)(F)F)cc(C(F)(F)F)c4)cc3)c12` [GW795486X], the figure is 0.08819.
`COc1cc2ncn(-c3cc(OCc4ccccc4S(C)(=O)=O)c(C#N)s3)c2cc1OC` [GSK319347A]: the “fold change in fluorescence relative to zaprinast alone” value is 1.184.
Same read-out and setting: as for `COc1cccc(OC)c1C(=O)Nc1cccc(-c2nn3ccccc3c2-c2ccnc(Nc3cccc(F)c3)n2)c1` [GSK361065A], the figure is 0.9782.
As for `O=C(Nc1n[nH]c2cc(-c3cccc(F)c3)ccc12)C1CC1` [SB-735464], the “fold change in fluorescence relative to zaprinast alone” value was found to be 1.069.
The same measure, in the same setting: as for `CC(C)(C)n1cnc2c(N)ncnc21` [SKF-97359], the figure is 1.052.
Still for that read-out and setting: next, `CN(C)CCOc1ccc(-c2cc(-c3ccc(Cl)c(O)c3)c(-c3ccncc3)[nH]2)cc1` [SB-684387-B]: 0.6076; `O=S(=O)(c1ccc(-c2ccnc3[nH]ccc23)cc1)N1CCCC1` [GSK846226A]: 1.029; `c1ccc(Oc2ccc(Nc3ccnc4cc(-c5ccc(CNCCN6CCOCC6)o5)ccc34)cc2)nc1` [GW567145X]: 0.643.
The same measure, in the same setting: as for `COc1ccc(-c2ccncc2)cc1C(N)=O` [GSK605714A], the figure is 1.144; as for `Cc1ccc(O)cc1Nc1ccnc2cc(-c3ccccn3)ccc12` [GW440139B], 1.023; as for `Cc1ccc(O)cc1Nc1ccnc2ccc(S(C)(=O)=O)cc12` [GW559768X], 1.199.
Turning to `CSc1ccc(-c2nc3n(c2-c2ccncc2)CCC3)cc1` [SKF-105561], the “fold change in fluorescence relative to zaprinast alone” value came out at 0.9692.
In the case of `Clc1ccc(CNc2nccc(-c3cnn4ncccc34)n2)cc1` [GW781673X], the “fold change in fluorescence relative to zaprinast alone” value is recorded as 0.7156.
On the same count and under the same terms, as for `Fc1ccc(-c2c(-c3ccncc3)nc3n2CCS3)cc1` [SKF-86055], the figure is 1.285; as for `COc1ccccc1-c1ccc2c(NC(=O)C3CC3)n[nH]c2n1` [SB-711239], 1.107.
Turning to `Cc1cccc(-c2nc(Nc3ccncc3)c3sccc3n2)n1` [GW869641X], the “fold change in fluorescence relative to zaprinast alone” value was found to be 1.179.
Same read-out and setting: next, `COc1cc2ncn(-c3cc(OCC4CCCCC4)c(C(N)=O)s3)c2cc1OC` [GSK204559A]: 1.336; `CS(=O)(=O)CCNCc1ccc(-c2ccc3ncnc(Nc4ccc(OCc5cccc(F)c5)c(C(F)(F)F)c4)c3c2)o1` [GW576484X]: 0.5624; `COc1ccc(CNC(=O)c2ccc(-c3cc(-c4nnc(C)o4)ccc3C)cc2)cc1` [GW701032X]: 1.056.
Same read-out and setting: next, `COc1ccc(-c2nn3ncccc3c2-c2ccnc(Nc3ccc4c(c3)OCCO4)n2)cc1` [GW827106X]: 0.9888; `COc1cc(Nc2nccc(Nc3ccc4c(C)n[nH]c4c3)n2)cc(OC)c1OC` [GW612286X]: 0.875; `COc1cc2ncn(-c3cc(OCc4ccccc4C(F)(F)F)c(C(C)=O)s3)c2cc1OC` [GSK1030059A]: 1.158.
Consider `COc1ccccc1Nc1ncc(-c2ccccc2)o1` [GW577921A], for which the “fold change in fluorescence relative to zaprinast alone” value stood at 0.9668.
Same read-out and setting: as for `O=C(O[C@H]1CN[C@H](C#Cc2cc3ncnc(Nc4ccc(Cc5ccccc5)cc4)c3s2)C1)N1CCOCC1` [GSK238583A], the figure is 1.249.
For the molecule `COc1cccc(-n2cnc3c(N/N=C/c4ccncc4)ncnc32)c1` [GW813360X], the “fold change in fluorescence relative to zaprinast alone” value is reported as 1.13.
Turning to `COc1ccccc1CNC(=O)c1cc(C(=O)c2ccccc2C)c[nH]1` [GSK364507A], the “fold change in fluorescence relative to zaprinast alone” value turned out to be 1.353.
Turning to `Nc1cccc(-c2ccc3c(N)n[nH]c3c2)c1` [GSK2193613A], the “fold change in fluorescence relative to zaprinast alone” value is 0.7898.
Consider `NCCCC(NC(=O)c1cc(Br)c(-c2ccnc3[nH]ccc23)s1)c1ccccc1` (stereo not drawn) [GSK1287544A], for which the “fold change in fluorescence relative to zaprinast alone” value was 0.7469.
Take `FC(F)(F)c1ccc(/C=C/c2cncnc2Nc2ccc3nc(Cc4ccccc4)[nH]c3c2)cc1` [GW709199X]: the “fold change in fluorescence relative to zaprinast alone” value came out at 1.132.
The same measure, in the same setting: next, `COC(=O)c1cccc(NC(=O)NCCNc2ccnc(Nc3ccc(F)cc3)n2)c1` [GSK1379883A]: 0.8839; `CN1CCN(Cc2cccc(-c3ccc4c(Nc5ccc(Oc6ccccc6)cc5)ccnc4c3)c2)CC1` [GW578342X]: 1.603; `O=C1NC(=O)C(c2ccccc2Cl)=C1Nc1cccc(Cl)c1` [SB-342409]: 0.95.
For the molecule `CCN1CCC(C(=O)Nc2n[nH]c3nnc(-c4cccc(F)c4F)cc23)CC1` [SB-686709-A], the “fold change in fluorescence relative to zaprinast alone” value is 1.08.
As to `COc1ccc(-c2cc3c(N)ncnc3o2)cc1` [GW642138X], the “fold change in fluorescence relative to zaprinast alone” value is 1.142.
The same measure, in the same setting: next, `COc1cc(Nc2nccc(N3CCC(NC(=O)c4cc5ccccc5s4)C3)n2)cc(OC)c1OC` (stereo not drawn) [GSK1379760A]: 1.279.

Values taken from PMC4850295, “Using a Genetically Encoded Sensor to Identify Inhibitors of Toxoplasma gondii Ca^2+ Signaling” (The Journal of Biological Chemistry, 2016).
